Measurements reported in patent publication US12071415B2, “Carbon monoxide prodrugs for the treatment of medical disorders” (Georgia State University Research Foundation, Inc., priority 2018, dated 2024).

Tests used:
[1] = pKa of the conjugate acid of the leaving group; no measurement described; cited from earlier work
[2] = NMR CO release experiments for formyl compounds; assay type: physicochemical; settings: deuterated PBS or 20% DMSO-d6 in deuterated PBS; determined indirectly from ratio of formic acid formed
Experimental: Compounds 1-4 were tested for their CO release by NMR. Each compound was placed in deuterated PBS or 20% DMSO-d6 in deuterated PBS. CO release yield was indirectly determined by calculating the ratio of formic acid formed as a by-product of the competing hydrolysis reaction.

deoxy-myoglobin = assay: Two-compartment CO-myoglobin (Mb-CO) assay; assay type: physicochemical; settings: DMSO/PBS, 37° C., 25 minutes
[3] = COP-1 fluorescent probe evaluation of CO release; assay type: physicochemical
Experimental: COP-1, a CO probe that is commonly employed in the literature to detect CO was used to evaluate the ability of different oxalyl-based compounds to release CO under aqueous solution at room temperature. Chloride was replaced with various leaving groups having different pKa values to survey the effect of pKa on CO release.
To a solution of the CO probe COP-1 (0.5 μM) in 3% DMSO in PBS, a solution of 1,2-bis(1,1-dioxido-3-oxobenzo[d]isothiazol-2(3H)-yl)ethane-1,2-dione in DMSO was added to form a 100 μM final solution concentration. The resulting mixture was incubated at 37° C., and the fluorescence emission intensity was recorded at different time points from […] with an excitation wavelength of 475 nm.

[4] = HPLC kinetics of decomposition; assay type: physicochemical; settings: 40% acetonitrile in PBS; 60% PBS (40% acetonitrile), 37° C.
Experimental: Compound 5 was tested for its rate of decomposition under physiological conditions. The followed samples were injected into the HPLC instrument i) saccharin (200 μM) dissolved in 40% acetonitrile in PBS; and b) incubated solution of the CO-releasing molecule Compound 5 dissolved in 40% acetonitrile in PBS at 37° C. at different time points. A 200 μL aliquot of incubated sample was placed inside a 0.5 mL vial followed by dilution with 200 μL of acetonitrile. The study was performed using the Shimadzu Prominence UFLC with a reversed-phase analytical column (Waters C18 3.5 μM, 4.6×100 mm) at 25° C. The flow rate was set at 1 mL/min. Gradient elution using acetonitrile and deionized water with 0.05% TFA was used to elute out the components of the sample. Elution conditions: 0-7 min 50% to 70% acetonitrile; injection volume 10 μL; detection wavelength of 254 and 280 nm. Experiments were done in triplicate.

[5] = LC-MS determination of oxalic acid (CO vs non-CO producing pathways); assay type: physicochemical; settings: from a 200-μM sample
Experimental: LC-MS Studies: CO Production Vs Non-CO Producing Pathways The LCMS analysis was performed on an Agilent 1200 HPLC and 3200 API triple quadrupole mass spectrometer with electrospray ionization source in a negative mode. Selected ion mode was used for the detection of ions at m/z 182 for saccharin and m/z 89 for oxalic acid. A 5 uL of sample solution (compound 5) was directly delivered to the mass spectrometer ionization source with an Agilent autosampler and HPLC by mixing with 1% ACN in water mobile phase at 200 uL/min flow rate. No column was used. Three minutes were recorded and the peak area was integrated and the peak are ratio of PA (Oxalic acid)/PA(Saccharin) vs Concentration ratio (C(Saccharine)/C(Oxalic acid) was plotted as standard curve. The linear regression equation was generated for the calculation of the ratio of unknowns.

[6] = Saturation adsorption assay on activated charcoal; assay type: physicochemical; settings: in 10 mg activated charcoal, ACN, 25° C.
Experimental: A saturation adsorption assay was used to determine the adsorption capacity of the Compound 5 on activated charcoal. Compound 5 was dissolved in anhydrous ACN to form calibration samples with a concentration range from 0.019 to 0.3 mg/ml. The absorbance at 280 nm was measured with a UV-Vis spectrometer and plotted against the concentration to give the calibration curve (FIG. 21).
At room temperature (25° C.), 1-6 mg Compound 5 was mixed with 10 mg of activated charcoal and then 0.5 ml ACN was added. The mixture was shaken for 1 h followed by centrifuging at 12000×g for 5 min and the supernatant was diluted by 50 folds with ACN and measured with UV/Vis spectrometer at 280 nm to get the Compound 5 concentration in the supernatant. Adsorbed mass of Compound 5 was calculated by Formula I: Adsorbed mass=(Initial mass)−0.5*(supernatant concentration) (Formula I) Adsorbed mass=Y0+(Plateau-Y0)*(1−e^kX) (Formula II)

[7] = RP-HPLC stability study (solid and acetonitrile solution); assay type: physicochemical; settings: exposed to ambient light and temperature
Source text: These prodrugs are also stable as a solution of acetonitrile stored at room temperature for at least seven days.

[8] = tested on: LPS induced TNF-α production in RAW264.7 cells; assay: Anti-inflammatory assay: TNF-α ELISA in LPS-stimulated RAW264.7 cell culture; assay type: cell-based; settings: total 5 hour pretreatment (Compound 5 medium changed every 1 hour 5 times; Compound 7 single addition)
Experimental: The effect of the compounds of the present invention on CO-associated anti-inflammation activity was studied. Pro-inflammatory cytokine TNF-α in RAW264.7 cell culture upon stimulation by lipid polysaccharide (LPS) from E. coli was tested with ELSA assay. […] Due to the fast release kinetics of Compound 5, a repeated dosage protocol was used. Indicated concentration of Compound 5 was added to the culture medium right before addition to the cell and the fresh-made drug loaded culture medium was changed every 1 hour 5 times. Compound 7 has a longer half-life and therefore a single addition of the drug can fulfill the anti-inflammation effect. A Total 5 hour pretreatment was used throughout the experiments and the reported CO prodrug shown below (Ji, X., et al. Angew Chem Int Ed Engl 2016, 55 (51), 15846-15851) was used as the positive control: […]

[9] = Quantitative CO analysis by GC with thermal conductivity detector; assay type: physicochemical; settings: 37° C.; for CO release yield: 4 to 1 acetonitrile: water, 1 h (FIG. 10); for CO yield, effect of pH: pH 1, pH 3 and pH 7.4 buffers in ACN:H2O (4:1), 1 hour (FIG. 11, 12)
Experimental: An Agilent […] GC System equipped with a thermal conductivity detector was used to detect and quantify CO release yield of the CO prodrugs. Using a gas tight syringe, specific volumes of the headspace of 20-mL headspace vials were sampled and transferred to the injector port maintained at 125° C. Helium was used as the carrier gas with a flow rate of 30 mL/min. Gaseous components of the headspace were separated by passing through a packed column with 60/80 Carboxen-1000 matrix support, […] (4.6 m)×1⁄8 in.×2.1 mm (Supelco). The column was heated 35° C. for 5 min then 225° C. at 20° C./min while the detector was held at 125° C.

[10] = CO release profile of the activated charcoal formulation (GC headspace); assay type: physicochemical; settings: 100 mg method A formulation, 3 mL PBS, 37° C.
Experimental: Activated charcoal comprising Compound 5 (100 mg) that was formulated by method A was put into a GC-headspace vial. PBS (3 mL) preheated to 37° C. was added and the vial was sealed and incubated at 37° C. At different time points, 250 μL of the headspace gas was withdrawn and injected to a gas chromatograph (Agilent 7820) equipped with a RESTEK packed molecular sieve column and a TCD detector. The CO release kinetic and yield were plotted (FIG. 23) based on the CO peak area and calibration curve.

HeLa cells = assay: CCK-8 cytotoxicity assay; assay type: cell-based; settings: 0-100 μM, 1% DMSO in DMEM, 24 hours
Experimental: For the CCK-8 assay, HeLa cells were cultured in DMEM (Dulbecco's Modified Eagle's Medium) supplements with 10% fetal bovine serum (MidSci; SO1520HI) and 1% penicillin-streptomycin (Sigma-Aldrich; P4333) at 37° C. with 5% C02. Fresh medium was replenished every other day. The cells were treated with the compounds (0-100 μM) using 1% DMSO in DMEM for 24 hours.

For `O=C(Oc1c(Cl)cc(Cl)cc1Cl)C(=O)Oc1c(Cl)cc(Cl)cc1Cl`, the pKa [1] is given as 6.23.

For `O=C(C(=O)N1C(=O)c2ccccc2C1=O)N1C(=O)c2ccccc2C1=O`, the pKa [1] is listed as 8.3.

For `O=C(C(=O)n1ccnc1)n1ccnc1`, the pKa [1] is given as 14.5.

With `O=CN1C(=O)c2ccccc2S1(=O)=O` [Compound 1, 3-Oxobenzo[d]isothiazole-2(3H)-carbaldehyde 1,1-dioxide] the “CO Release Yield (%)” value [2] was 20%.

In the case of `Cc1nn(C=O)c(=S)s1` [Compound 2, 5-Methyl-2-thioxo-1,3,4-thiadiazole-3(2H)-carbaldehyde], the “CO Release Yield (%)” value [2] is reported as 33%, the “formation of CO-myoglobin (UV-Vis spectral signature)” value (“formation of CO-myoglobin” below) (deoxy-myoglobin) is reported as “showed the characteristic spectral signature for the formation of CO-myoglobin” and the “increase in fluorescence with the COP-1 probe” value ([3]; after 10 minutes of incubation (FIG. 4)) is reported as 2.3 fold.

In the case of `O=Cn1ccccc1=O` [Compound 3, 2-Oxopyridine-1(2H)-carbaldehyde], the “CO Release Yield (%)” value [2] is reported as 20%.

For `C[N+](C)=c1ccn(C=O)cc1.[Br-]` [Compound 4, N-(1-Formylpyridin-4(1H)-ylidene)-N-methylmethanaminium Bromide], the “CO Release Yield (%)” value [2] was 34%.

In the case of `O=C(C(=O)N1C(=O)c2ccccc2S1(=O)=O)N1C(=O)c2ccccc2S1(=O)=O` [Compound 5, 1,2-Bis(1,1-dioxido-3-oxobenzo[d]isothiazol-2(3H)-yl)ethane-1,2-dione], the half-life [4] is reported as 1.28 ± 0.03 min, the “CO production estimated from oxalic acid” value [5] is reported as “about 75%” and the oxalic acid produced [5] is reported as 47 µM. The “maximum adsorption amount on activated charcoal (plateau)” value [6] was 1.73 mg, the “stable as a solid” value [7] was “at least 24 days” and the “LPS induced TNF-α production” value [8] was “inhibit LPS induced TNF-α production in a dose-dependent manner”. For the same compound, the CO release yield [9] was 76%±6, the “CO yield, effect of pH” value [9] was 60% to 30% and the “total CO release yield” value [10] was 81%. The “toxicity to HeLa cells (cell survival)” value (HeLa cells) was “no toxicity to HeLa cells up to a 100 μM concentration”, the “formation of CO-myoglobin” value (deoxy-myoglobin) was “showed the characteristic spectral signature for the formation of CO-myoglobin” and the “increase in fluorescence intensity with the COP-1 probe” value ([3]; after 3 h (FIG. 5), 100 μM compound, 0.5 μM COP-1, 3% DMSO in PBS, 37° C.) was 4 fold.

For `CC1=CC(=O)N(C(=O)C(=O)N2C(=O)C=C(C)OS2(=O)=O)S(=O)(=O)O1` [Compound 7, 1,2-Bis(6-methyl-2,2-dioxido-4-oxo-1,2,3-oxathiazin-3(4H)-yl)ethane-1,2-dione], the half-life [4] was 9.5 ± 0.1 min, the “LPS induced TNF-α production” value [8] was “inhibit LPS induced TNF-α production in a dose-dependent manner” and the CO release yield [9] was 92%±3. The “CO yield, effect of pH” value [9] was “around 90%” and the “formation of CO-myoglobin” value (deoxy-myoglobin) was “showed the characteristic spectral signature for the formation of CO-myoglobin”.

For `CC(C)(C)OC(=O)C(=O)N1C(=O)c2ccccc2S1(=O)=O` [Compound 8, tert-Butyl 2-(1,1-Dioxido-3-oxobenzo[d]isothiazol-2(3H)-yl)-2-oxoacetate], the CO release yield [9] was “No CO nor CO2 were detected” and the CO2 yield ([9]; ACN:H2O (4:1), 1 hour (FIG. 10)) was “No CO nor CO2 were detected”.

In the case of `CS(=O)(=O)N(C(=O)C(=O)N(C(=O)c1ccccc1)S(C)(=O)=O)C(=O)c1ccccc1` [Compound 9, N^1,N^2-Dibenzoyl-N^1,N^2-bis(methylsulfonyl)oxalamide], the CO release yield [9] is reported as “no CO was detected”.

For `O=C(C(=O)N1C(=O)c2ccccc2S1(=O)=O)N1C(=O)c2ccccc2S1(=O)=O` [drawing 150], the pKa [1] is given as 1.6.
